For the experiment, the system named is Moloney murine leukemia virus. The experiment is described as follows: Inhibition of Moloney murine leukemia virus reverse transcriptase assessed as [3H]-dTMP incorporation after 30 to 120 mins.

Each structure is given as a SMILES string. Calls of active or inactive are those of the source. The rule behind the calls is not given here.

On to `CN1C(=O)[C@]23SSC[C@@H]4OC(C)(C)O[C@H]4CSS[C@@]1(C)C(=O)N2c1ccccc1C3(C)C`, for which the logI50 stood at 0.796.

In the case of `CN1C(=O)[C@@]23SSC[C@@H]4OC(C)(C)O[C@H]4CSS[C@]1(C)C(=O)N2c1ccccc1C3(C)C`, the logI50 is 0.796.

For the compound `CN1C(=O)[C@@]23SS[C@]1(C)C(=O)N2c1ccccc1C3(C)C`, the inhibition entry was “Active”.

For `CN1C(=O)[C@]23SS[C@@]1(C)C(=O)N2c1ccccc1C3(C)C`, the inhibition entry is “Active”.

Values taken from ChEMBL document CHEMBL3272215, “Gliotoxin analogues as inhibitors of reverse transcriptase. 2. Resolution and X-ray crystal structure determination” (J Med Chem, 1978).
